In the supplement of paper PMC4862054:

Assays:
Settings in all cases: incubation time: 72 h
BT-474 [1] = test: normalised response (% of control), CellTiter-Glo; higher = more viable cells (100 = DMSO, 0 = benzethonium chloride kill control)
In short: (§1)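 Breast cancer cell lines were exposed for 72 h in 384-well plates to compound at 5 concentrations, 10-fold apart, covering a 10,000-fold range fixed for each compound. Plates were read for CellTox Green fluorescence and CellTiter-Glo luminescence and normalised to 0.1 % DMSO (100) and a positive kill control (0). Each value is the normalised signal at one concentration of the series.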

MDA-MB-436 [2] = test: as above
In short: as §1

DU-4475 [3] = test: as above
In short: as §1

MDA-MB-453 [4] = test: as above
In short: as §1

MDA-MB-468 [5] = test: as above
In short: as §1

SK-BR-3 = test: as above
In short: as §1

Hs578T [6] = test: as above
In short: as §1

HCC1143 [7] = test: as above
In short: as §1

HDQ-P1 [8] = test: as above
In short: as §1

CAL-120 [9] = test: as above
In short: as §1

BT-549 [10] = test: as above
In short: as §1

MFM-223 [11] = test: as above
In short: as §1

CAL-148 [12] = test: as above
In short: as §1

HCC1599 [13] = test: as above
In short: as §1

MDA-MB-231 [14] = test: as above
In short: as §1

HCC1937 [15] = test: as above
In short: as §1

MCF-10A [16] = test: as above
In short: as §1

CAL-51 [17] = test: as above
In short: as §1

CAL-85-1 [18] = test: as above
In short: as §1

BT-474 [19] = test: normalised response (% of control), CellTox Green; higher = less cell death (100 = DMSO, 0 = benzethonium chloride kill control)
In short: as §1

MDA-MB-436 [20] = test: as above
In short: as §1

DU-4475 [21] = test: as above
In short: as §1

MDA-MB-453 [22] = test: as above
In short: as §1

MDA-MB-468 [23] = test: as above
In short: as §1

Hs578T [24] = test: as above
In short: as §1

CAL-120 [25] = test: as above
In short: as §1

BT-549 [26] = test: as above
In short: as §1

MFM-223 [27] = test: as above
In short: as §1

CAL-148 [28] = test: as above
In short: as §1

HCC1599 [29] = test: as above
In short: as §1

MDA-MB-231 [30] = test: as above
In short: as §1

MCF-10A [31] = test: as above
In short: as §1

CAL-51 [32] = test: as above
In short: as §1

CAL-85-1 [33] = test: as above
In short: as §1

HCC1143 [34] = test: as above
In short: as §1

HDQ-P1 [35] = test: as above
In short: as §1

HCC1937 [36] = test: as above
In short: as §1

Row | SMILES | normalised response (BT-474 [1]) [%] | normalised response (MDA-MB-436 [2]) [%] | normalised response (DU-4475 [3]) [%] | normalised response (MDA-MB-453 [4]) [%] | normalised response (MDA-MB-468 [5]) [%] | normalised response (SK-BR-3) [%] | normalised response (Hs578T [6]) [%] | normalised response (HCC1143 [7]) [%] | normalised response (HDQ-P1 [8]) [%] | normalised response (CAL-120 [9]) [%] | normalised response (BT-549 [10]) [%] | normalised response (MFM-223 [11]) [%] | normalised response (CAL-148 [12]) [%] | normalised response (HCC1599 [13]) [%] | normalised response (MDA-MB-231 [14]) [%] | normalised response (HCC1937 [15]) [%] | normalised response (MCF-10A [16]) [%] | normalised response (CAL-51 [17]) [%] | normalised response (CAL-85-1 [18]) [%] | normalised response (BT-474 [19]) [%] | normalised response (MDA-MB-436 [20]) [%] | normalised response (DU-4475 [21]) [%] | normalised response (MDA-MB-453 [22]) [%] | normalised response (MDA-MB-468 [23]) [%] | normalised response (Hs578T [24]) [%] | normalised response (CAL-120 [25]) [%] | normalised response (BT-549 [26]) [%] | normalised response (MFM-223 [27]) [%] | normalised response (CAL-148 [28]) [%] | normalised response (HCC1599 [29]) [%] | normalised response (MDA-MB-231 [30]) [%] | normalised response (MCF-10A [31]) [%] | normalised response (CAL-51 [32]) [%] | normalised response (CAL-85-1 [33]) [%] | normalised response (HCC1143 [34]) [%] | normalised response (HDQ-P1 [35]) [%] | normalised response (HCC1937 [36]) [%]
1 | CC(C)(C)Cn1c(N)nc2ccc(-c3[nH]c(C(C)(C)C)nc3-c3ccc(F)cc3)nc21 (1000 nM) | 101 | 102 | 94.8 | 92.8 | 93.4 | 97.7 | 97.7 | 98 | 94.6 | 96.6 | 93.7 | 97.9 | 93.1 | 111 | 100 | 93.6 | 89.7 | 103 | 104 | 101 | 78.8 | 105 | 101 | 113 | 80.6 | 81.1 | 111 | 99.5 | 99.9 | 84.3 | 110 | 77.7 | 94 | 90.7 | – | – | –
2 | Cn1cc(C[C@@H](N)C(=O)O)c2ccccc21 [1-methyl-D-tryptophan] (500 nM) | 97.6 | 101 | 94.4 | 105 | 101 | 92.7 | 115 | 94.8 | 107 | 105 | 105 | 92.7 | 89.7 | 115 | 96.6 | 99.3 | 104 | 81.3 | 100 | 99.3 | 88.9 | 101 | 103 | 143 | 66.7 | 99.3 | – | 84.3 | 91.4 | 85.2 | 95.6 | 113 | 95.5 | 98.8 | 94.1 | 107 | –
3 | CC[C@H](CC#N)OC(=O)N[C@@H](C)c1cccc(NC(=O)Nc2ccc(-c3cnco3)c(OC)c2)c1 [AVN944] (1000 nM) | 58.7 | 42.7 | 29.2 | 84.4 | 37.5 | 51.3 | 44.4 | 42.3 | 46.1 | 59.9 | 36.3 | 71.3 | 34.3 | 48.1 | 53.5 | 52.7 | 58 | 24.1 | 40.8 | 86.3 | 74 | 88.2 | 90.3 | 131 | 32 | 99.9 | 127 | 44.7 | -21.7 | 85 | 81.8 | 112 | 63.5 | 97 | 56.6 | 98.8 | 76.8
4 | CCc1cnn2c(NCc3ccc[n+]([O-])c3)cc(N3CCCC[C@H]3CCO)nc12 [Dinaciclib] (100 nM) | 20.7 | 15.8 | 18.6 | 15.5 | 9.07 | 4.18 | 12.9 | 18.8 | 22.3 | 36.6 | 12.7 | 14.8 | 52.9 | 10.5 | 5.94 | 27.6 | 28.7 | 10.2 | 8.18 | 71 | 105 | 96.3 | 100 | -14.9 | 38 | 87.7 | 53.8 | 30.3 | 50.9 | 71.3 | -7.86 | 65 | 50.7 | 21.7 | 88.7 | 63.2 | 87.2
5 | COc1cc(Nc2ncc(F)c(Nc3ccc4c(n3)N(COP(=O)(O)O)C(=O)C(C)(C)O4)n2)cc(OC)c1OC [Fostamatinib] (250 nM) | 88.2 | 105 | 94.8 | 93.7 | 90.5 | 98.1 | 91.3 | 95 | 103 | 86.9 | 93.7 | 63.1 | 91.4 | 110 | 85 | 94.9 | 84 | 105 | 96.1 | 97.8 | 86.6 | 100 | 107 | 57 | 97.7 | 101 | 82.7 | 101 | 93.1 | 92.7 | 53.7 | 102 | 92.2 | 106 | 76.3 | 109 | 125
6 | CC(C)NC[C@@H](C(=O)N1CCN(c2ncnc3c2[C@H](C)C[C@H]3O)CC1)c1ccc(Cl)cc1 [GDC-0068] (1000 nM) | 89.5 | 89.1 | 91.9 | 53.6 | 60.9 | 67.2 | 85.4 | 89.3 | 65.5 | 81.4 | 70.2 | 31.7 | 19 | 103 | 92.4 | 79 | 82.8 | 60.5 | 85.8 | 74.3 | 113 | 102 | 97.8 | 95.5 | 101 | 99.3 | 90.5 | 86.1 | 34.3 | 93.2 | 106 | 74.4 | 89.6 | 113 | 121 | 105 | 115
7 | CCCc1cc(C)[nH]c(=O)c1CNC(=O)c1cc(-c2ccnc(N3CCN(C)CC3)c2)cc2c1cnn2C(C)C [GSK343] (1000 nM) | 103 | 99.1 | 89.5 | 80.4 | 87 | 83.6 | 101 | 95.3 | 103 | 95 | 92.9 | 90.7 | 77.9 | 95.9 | 97.3 | 103 | 96.4 | 73.8 | 101 | 97.9 | 79.6 | 94.6 | 97.6 | 183 | 73.9 | 96.1 | 107 | – | 98.2 | 91.5 | 106 | 107 | 82.5 | 98 | 98.9 | 72.7 | 121
8 | COc1cc2c(cc1-c1c(C)noc1C)ncc1[nH]c(=O)n([C@H](C)c3ccccn3)c12 [I-BET151] (1000 nM) | 77.8 | 94.7 | 82.9 | 68.4 | 86.3 | 82 | 52.6 | 87.3 | 82.9 | 71.2 | 57.5 | 72 | 101 | 97.3 | 85.7 | 79.5 | 74 | 87.4 | 57.4 | 97.2 | 99.7 | 94.7 | 106 | 117 | 79.2 | 91.8 | 93.6 | 101 | – | 97.9 | 123 | 109 | 89.2 | 83.8 | 105 | – | 42.4
9 | CN1CCc2c(c3ccccc3n2Cc2ccc(C(=O)NO)cc2)C1 [Tubastatin A] (1000 nM) | 91.7 | 97.5 | 96.5 | 92.4 | 90.8 | 100 | 101 | 94.3 | 87.9 | 93.3 | 101 | 96.9 | 103 | 104 | 91.7 | 92.9 | 112 | 53.5 | 94.7 | 99.2 | 106 | 105 | 105 | 131 | 81.9 | 102 | 99.6 | 101 | 104 | 93.7 | 98.7 | 110 | 91.3 | 111 | – | 94.3 | 98
